Here are results for 15 molecules from ChEMBL document CHEMBL4602669, “Bishomoscalarane Sesterterpenoids from the Sponge Dysidea granulosa Collected in the South China Sea” (2020).

Holding throughout (format): functional
In one experiment the test system is HCT-116. The experiment can be described thus: Antiproliferative activity against human HCT116 cells by MTT assay. In general terms: Tetrazolium dyes change colour on reduction, which living cells bring about.
Another experiment deals with A549. Description: Antiproliferative activity against human A549 cells by MTT assay.
The next experiment deals with Bel-7402. Description: Antiproliferative activity against human Bel7402 cells by MTT assay.
The next experiment has as its system Jurkat. Description: Antiproliferative activity against human Jurkat cells by MTT assay.
Another experiment concerns K562. Description: Antiproliferative activity against human K562 cells by MTT assay.

As a reminder, the GI50 is the concentration at which growth is held to half of that of the control.

Bounds are passed on as bounds.

Regarding `CC[C@@]1(C)CCC[C@]2(C)[C@H]3C[C@H](O)[C@]4(C)C5=C(CC[C@H]4[C@]3(C)CC[C@@H]12)C(=O)C[C@H]5O`, the GI50 in the experiment with HCT-116, with A549, in the experiment with Bel-7402, in the experiment with Jurkat and with K562 was > 30 µM throughout.
`CCC(=O)O[C@H]1C[C@@H]2[C@@]3(C)CCC[C@@]4(C[C@@H]4C)[C@@H]3CC[C@@]2(C)[C@@H]2CCC3=C(C(=O)O[C@H]3C)[C@@]12C`: the GI50 in the experiment with HCT-116, with A549, with Bel-7402, in the experiment with Jurkat and with K562 was > 30 µM throughout.
As for `CC(O)CC(=O)O[C@H]1C[C@@H]2[C@@]3(C)CCC[C@@]4(C[C@@H]4C)[C@@H]3CC[C@@]2(C)[C@@H]2C[C@@H](O)C3=C([C@H](O)CC3=O)[C@@]12C` (stereo partly drawn), the GI50 in the experiment on HCT-116, in the experiment with A549, in the experiment on Bel-7402, with Jurkat and in the experiment with K562 was > 30 µM in each case.
Consider `CCC(=O)O[C@@H](C)[C@@]1(C)CCC[C@@]2(C)[C@H]1CC[C@]1(C)[C@@H]2C[C@H](OC(=O)CC(O)CC)[C@]2(C)C3=C(CC[C@@H]12)[C@H](C)OC3=O` (stereo partly drawn), for which the GI50 in the experiment with HCT-116, with A549, with Bel-7402, with Jurkat and in the experiment with K562 was > 30 µM in each case.
With `CC(=O)O[C@@H](C)[C@@]1(C)CCC[C@@]2(C)[C@H]1CC[C@]1(C)[C@@H]2C[C@H](OC(=O)CC(C)O)[C@]2(C)C=C(C(C)=O)[C@H](O)C[C@H]21` (stereo partly drawn), the GI50 in the experiment on HCT-116, with A549, in the experiment on Bel-7402, in the experiment on Jurkat and in the experiment on K562 was > 30 µM in each case.
In the case of `CC/C1=C/CO[C@@]2(C)[C@@H](O)C[C@@H]3[C@@]4(C)CCC[C@](C)(CC)[C@@H]4CC[C@@]3(C)[C@@H]2CC1`, the GI50 in the experiment with HCT-116, with A549, in the experiment on Bel-7402, in the experiment on Jurkat and in the experiment on K562 was > 30 µM in each case.
Regarding `CC(=O)OC(C)CC(=O)O[C@H]1C[C@@H]2[C@@]3(C)CCC[C@](C)([C@H](C)OC(C)=O)[C@@H]3CC[C@@]2(C)[C@@H]2C[C@@H](O)C(C(C)=O)=C[C@@]12C` (stereo partly drawn), the GI50 with HCT-116, in the experiment on A549, in the experiment on Bel-7402, with Jurkat and in the experiment on K562 was > 30 µM throughout.
For `CC[C@@]1(C)CCC[C@]2(C)[C@H]3C[C@H](OC(=O)CC(C)O)[C@]45C[C@@H](O)[C@H]4C(C(C)=O)=CC[C@H]5[C@]3(C)CC[C@@H]12` (stereo partly drawn), the GI50 in the experiment with HCT-116 was found to be 14 µM; in the experiment with A549, 12 µM; in the experiment on Bel-7402, 14 µM; in the experiment with K562, 11 µM.
As to `CCC(O)CC(=O)O[C@H]1C[C@@H]2[C@@]3(C)CCC[C@](C)([C@H](C)OC(C)=O)[C@@H]3CC[C@@]2(C)[C@@H]2C[C@H](O)C(C(C)=O)=C[C@@]12C` (stereo partly drawn), the GI50 with HCT-116, in the experiment with A549, in the experiment on Bel-7402, with Jurkat and in the experiment with K562 was > 30 µM throughout.
In the case of `CC(=O)C1=C[C@@]2(C)[C@@H](OC(=O)CC(C)O)C[C@H]3[C@@](C)(CC[C@@H]4[C@]3(C)CCC[C@@]43C[C@@H]3C)[C@@H]2C[C@H]1O` (stereo partly drawn), the GI50 with HCT-116 came out at 6.4 µM; in the experiment with A549 it was 8.1 µM; in the experiment on Bel-7402, 11 µM; in the experiment with Jurkat, 13 µM.
Regarding `CC(=O)O[C@H]1C[C@@H]2[C@@]3(C)CCC[C@@]4(C[C@@H]4C)[C@@H]3CC[C@@]2(C)[C@@H]2CCC3=C(C(=O)O[C@@H]3C)[C@@]12C`, the GI50 with HCT-116, in the experiment on A549, in the experiment with Bel-7402, in the experiment on Jurkat and with K562 was > 30 µM each time.
Take `CCC(=O)O[C@@H](C)[C@@]1(C)CCC[C@@]2(C)[C@H]1CC[C@]1(C)[C@@H]2C[C@H](OC(=O)CC(O)CC)[C@]2(C)C3=C(CC[C@@H]12)[C@@H](C)OC3=O` (stereo partly drawn): the GI50 with HCT-116, in the experiment on A549, with Bel-7402, in the experiment with Jurkat and in the experiment on K562 was > 30 µM each time.
On to `CC(=O)O[C@H]1C[C@@H]2[C@@]3(C)CCC[C@@]4(C[C@@H]4C)[C@@H]3CC[C@@]2(C)[C@@H]2CCC3=C(C(=O)O[C@H]3C)[C@@]12C`, for which the GI50 with HCT-116, with A549, with Bel-7402, in the experiment with Jurkat and with K562 was > 30 µM throughout.
Turning to `CC[C@@]1(C)CCC[C@]2(C)[C@H]3C[C@H](OC(=O)CC(C)O)[C@]4(C)C=C(C(C)=O)[C@H](O)C[C@H]4[C@]3(C)CC[C@@H]12` (stereo partly drawn), the GI50 with HCT-116, in the experiment with A549, in the experiment with Bel-7402, in the experiment with Jurkat and in the experiment with K562 was > 30 µM in each case.
Consider `COc1cccc2c1C(=O)c1c(O)c3c(c(O)c1C2=O)C[C@@](O)(C(=O)CO)C[C@@H]3O[C@H]1C[C@H](N)[C@H](O)[C@H](C)O1` [DOXORUBICIN], for which the GI50 with HCT-116, with A549, in the experiment with Bel-7402, with Jurkat and with K562 was < 1 µM each time.
